Here are results for five compounds from patent publication US11952554B2, “Alkyl polyglycoside-containing cleaning formulations for chemically sensitive individuals” (Living Clean NZ, Ltd., priority 2021, dated 2024).

The test system of series [1] is chemically sensitive individuals (MCS). Set-up: species or system human. Particulars: in vivo. How it is done: Once candidate ingredients are identified and tested as described above, they are evaluated for use in potential cleaning formulations using a blind study protocol. The blind studies used in the course of the instant work were comprised of a specially selected panel of volunteers. […] A panel comprised of just such individuals was used for many aspects of the studies conducted herein. […] See E. A. Krusemark and W. Li, “Enhanced olfactory sensory perception of threat in anxiety: An event-related fMRI study,” Chemosensory Perception, 5 (2012) 37-45; the article in its entirely is herein incorporated by reference.
In the course of the instant work, at least one individual with MCS was used to rank prospective ingredients for acceptability in cleaning formulations based upon sensory responses, which included olfactory as well as skin contact. Instrumental analyses were then implemented to correlate results with sensory ratings from the human panel, and to identify and/or quantify the chemicals detected and deemed to be potentially harmful to humans. Ingredients that were deemed acceptable by the human panel and the instrumental analyses were then used as raw materials for cleaning products described herein. It is believed that this level of pre-screening and testing represents a first in the world for consumer cleaning product formulations work, and has provided an unprecedented level of safety testing for consumer products. Accordingly, in one aspect of the technology newly presented and described herein, a method for providing cleaning formulations for use by the general public and chemically-sensitized individuals, in particular, involves:
Without being bound by theory, it is believed that this phenomenon is due to the non-exact nature of the BCI or RCI measurement (±3% by weight) vis-à-vis the low amounts of contaminants, perhaps much less than 1% by weight, that are present in certain ingredients. To test this hypothesis, a number of chemically sensitive individuals assessed four types of alkyl polyglucosides, or APGs, from three manufacturers, all of which have an apparent BCI/RCI of 100%. Each of the APG candidates was rated on a 3-point index: Acceptable, Marginal, and Unacceptable. The Marginal and Unacceptable candidates were then analyzed for the presence of trace contaminants.
In the manufacture of surfactants, it can be assumed that a small amount, albeit a significant one, of feedstock remains unreacted. This amount can often be less than 1% by weight, but to individuals who are sensitive to such species, the impact can be significant. […] As such, a number of raw materials were evaluated by a number of chemically sensitive individuals for acceptability using the same scale as above.

For series [2] the following is noted: cited from earlier work.

Turning to C10-16 alkyl polyglucoside, in series [1], the “Acceptability Rating” value was “Acceptable-”.
With `ClC(Cl)Cl` [Trichloromethane (chloroform), Trichloromethane], the CAA-HAP listing result in series [2] (Clean Air Act-Hazardous Air Pollutant) is “✓”. Besides, in series [2] (Clean Air Act-Toxic and Flammable Substances for Accidental Release Prevention), the CAA-TFS listing entry is on record as “✓”. Besides, in series [2] (Clean Water Act-Priority Pollutant), the CWA listing entry is reported as “✓”. Further, the CERCLA listing result in series [2] (Comprehensive Environmental Response, Compensation, and Liability Act-Hazardous Substance) is recorded as “✓”. The EPCRA listing entry in series [2] (Emergency Planning & Community Right to Know Act-Toxic Release Inventory Chemical) was “✓”. Also, the OSHA listing entry in series [2] (Occupational Safety and Health Act-Air Contaminants) is “✓”. In addition, in series [2] (Resource Conservation and Recovery Act-Hazardous Constituents), the RCRA listing entry is “✓”.
Consider `CCCCCCCCOS(=O)(=O)[O-].[Na+]` [Sodium octyl sulfate (from bio-basis), Sodium octyl sulfate], for which the “Acceptability Rating” value in series [1] is recorded as “Unacceptable”.
For the compound Sodium coco sulfate, the “Acceptability Rating” value in series [1] is given as “Acceptable”.
As for C8-10 alkyl polyglucoside, the “Acceptability Rating” value in series [1] was “Unacceptable”.
